Columns and labels:
[1] = tested on: LO-2 (human normal liver cells); design: method as in earlier work; conditions: LO-2 cell line; cited from earlier work
[2] = Plasma pharmacokinetic study after single intravenous administration; format: in vivo; conditions: Sprague-Dawley, rat, rats, single i.v. 5 mg/kg
Procedure: In this study, a direct protein precipitation method was applied to extract alnustone and IS from the biological matrix. An aliquot 100 μL of plasma, 50 μL of IS solution (1 μg/mL) and 200 μL of precipitate agent acetonitrile with 0.5% formic acid was added into a 1.5 mL Eppendorf tube. The mixture was vortex-mixed for 30 s at room temperature, and centrifuged at 12,000× g for 10 min. […] The residuals were reconstituted in 100 μL of methanol-0.1% fomic acid water (20:80, v/v) by vortex mixing for 30 s. After centrifuging at 12,000× g for 10 min, a 10 μL aliquot of the supernatant was used for the UHPLC-MS/MS analysis. The mobile phase consisted of methanol and 0.1% formic acid water using a gradient dilution at a flow rate of 0.3 mL/min. The column temperature was maintained at 30 °C. Alnustone was quantitatively determined with MRM in the positive ion mode, and nitrogen was used to assist nebulization in the ESI source. The MS parameters were set as follows: The ionspray voltage (IS) 5500 V; nebulizer gas (gas 1) 19 arbitrary units; curtain gas (CUR) 10 arbitrary units; collision cell exit potential (CXP) 7.0 V; entrance potential (EP) 10.0 V. The optimization of the MS transitions using the multiple-reaction monitoring (MRM) mode were accomplished as alnustone m/z 262.9→105.2 and IS (caffeine) m/z 195.2→138.0, respectively. For the pharmacokinetic study, 12 SD rats fasted for 12 h with free access to water prior to administration. After the rats were tail intravenously administrated of alnustone (5 mg/kg), a blood sample (0.4 mL) was collected from the orbital vein into heparinized tubes at appropriate time intervals (2 min, 5 min, 10 min, 15 min, 30 min, 45 min, 1 […]). The blank plasma samples were prepared before dosing. All blood samples were immediately centrifuged at 12,000× g for 10 min and stored at -75 °C until analysis. The pharmacokinetic parameters were evaluated using DAS 3.2.8 pharmacokinetic program.

[3] = Tissue distribution study after intravenous administration; format: in vivo, Sprague-Dawley rats; conditions: rats, i.v. 5 mg/kg; for Kp at 0.5 h / Kp at 1 h / Kp at 4 h / Kp at 2 h: n = 5
Procedure: The rat was sacrificed quickly by decapitation on the ice. The various tissues (heart, liver, spleen, lung, kidney, brain, stomach, intestine) were harvested and rinsed with ice-cold 0.9% NaCl to remove the superficial blood. After being blotted dry with filter paper, each tissue sample was weighed on ice and physiological saline added ([…]) to homogenize. Then, a 100 μL (equivalent to 50 mg) of tissue homogenate was taken and processed using the same method as the plasma samples processing method as shown in the above steps.
The mobile phase consisted of methanol and 0.1% formic acid water using a gradient dilution at a flow rate of 0.3 mL/min. The column temperature was maintained at 30 °C. Alnustone was quantitatively determined with MRM in the positive ion mode, and nitrogen was used to assist nebulization in the ESI source. The MS parameters were set as follows: The ionspray voltage (IS) 5500 V; nebulizer gas (gas 1) 19 arbitrary units; curtain gas (CUR) 10 arbitrary units; collision cell exit potential (CXP) 7.0 V; entrance potential (EP) 10.0 V. The optimization of the MS transitions using the multiple-reaction monitoring (MRM) mode were accomplished as alnustone m/z 262.9→105.2 and IS (caffeine) m/z 195.2→138.0, respectively.
For the tissue distribution study, 20 SD rats were randomly divided into four groups (5 rats for each time point) and fasted for 12 h with free access to water prior to administration. After the rats were tail intravenously administrated of alnustone (5 mg/kg), the tissue specimens (heart, liver, spleen, lung, kidney, brain, stomach and intestine) were collected at 0.5, 1, 2, and 4 h post-dosing, respectively. The blank tissues were prepared separately using drug-free SD rats. The tissue harvesting and homogenizing method were given in Section 3.5. For the plasma and tissue homogenate sample preparation method, also see Section 3.5.

[4] = Sprague-Dawley, rat, iv, Intestine
[5] = Sprague-Dawley, rat, iv, Kidney
[6] = Sprague-Dawley, rat, iv, Spleen
[7] = Sprague-Dawley, rat, iv, Stomach

O=C(/C=C/C=C/c1ccccc1)CCc1ccccc1 [alnustone, Alnustone]
antitumor activity in vitro [1]: significant antitumor activity | Tmax [2]: 2 min | AUC(0-inf) ([2]; n = 12): 6030 ± 472 ng·h/mL | Cmax ([2]; n = 12): 7070 ± 821 ng/mL | Vd ([2]; n = 12): 1.57 ± 0.18 L/kg | clearance ([2]; n = 12): 13.8 mL/min/kg | half-life ([2]; n = 12): 1.31 ± 0.19 h | MRT inf ([2]; n = 12, read-out: MRT0–∞): 1.6 ± 0.22 h | MRT last ([2]; read-out: MRT0-t (total mean residence time up to 10 h)): 1.6 ± 0.22 h | AUC(0-t) ([2]; up to 10 h, n = 12): 6010 ± 567 ng·h/mL | Kp at 0.5 h ([3]; Sprague-Dawley, rat, iv, Brain): 0.11 ± 0.4 | Kp at 1 h ([3]; Sprague-Dawley, rat, iv, Brain): 0.21 ± 0.56 | Kp at 4 h ([3]; Sprague-Dawley, rat, iv, Brain, 4 h): 1.03 ± 0.08 | Kp at 0.5 h ([3]; Sprague-Dawley, rat, iv, Heart): 0.36 ± 0.06 | Kp at 1 h ([3]; Sprague-Dawley, rat, iv, Heart): 0.42 ± 0.1 | Kp at 2 h ([3]; Sprague-Dawley, rat, iv, Heart): 0.59 ± 0.17 | Kp at 4 h ([3]; Sprague-Dawley, rat, iv, Heart, 4 h): 1.78 ± 0.24 | Kp at 0.5 h [3, 4]: 0.39 ± 0.07 | Kp at 1 h [3, 4]: 0.66 ± 0.12 | Kp at 2 h [3, 4]: 0.88 ± 0.19 | Kp at 4 h ([3]; Sprague-Dawley, rat, iv, Intestine, 4 h): 1.18 ± 0.2 | Kp at 0.5 h [3, 5]: 0.58 ± 0.07 | Kp at 1 h [3, 5]: 0.74 ± 0.11 | Kp at 2 h [3, 5]: 1.49 ± 0.27 | Kp at 4 h ([3]; Sprague-Dawley, rat, iv, Kidney, 4 h): 1.86 ± 0.18 | Kp at 0.5 h ([3]; Sprague-Dawley, rat, iv, Liver): 1.28 ± 0.34 | Kp at 1 h ([3]; Sprague-Dawley, rat, iv, Liver): 1.31 ± 0.18 | Kp at 2 h ([3]; Sprague-Dawley, rat, iv, Liver): 1.28 ± 0.29 | Kp at 4 h ([3]; Sprague-Dawley, rat, iv, Liver, 4 h): 5.48 ± 0.66 | Kp at 0.5 h ([3]; Sprague-Dawley, rat, iv, Lung): 1.3 ± 0.09 | Kp at 1 h ([3]; Sprague-Dawley, rat, iv, Lung): 3.39 ± 0.39 | Kp at 2 h ([3]; Sprague-Dawley, rat, iv, Lung): 4.55 ± 0.61 | Kp at 4 h ([3]; Sprague-Dawley, rat, iv, Lung, 4 h): 15.8 ± 1.33 | Kp at 0.5 h [3, 6]: 0.46 ± 0.06 | Kp at 1 h [3, 6]: 1.24 ± 0.13 | Kp at 2 h [3, 6]: 0.7 ± 0.06 | Kp at 4 h ([3]; Sprague-Dawley, rat, iv, Spleen, 4 h): 1.54 ± 0.32 | Kp at 0.5 h [3, 7]: 0.64 ± 0.14 | Kp at 1 h [3, 7]: 0.52 ± 0.11 | Kp at 2 h [3, 7]: 0.7 ± 0.03 | Kp at 4 h ([3]; Sprague-Dawley, rat, iv, Stomach, 4 h): 3.66 ± 0.27 | concentration at 4 h ([3]; Sprague-Dawley, rat, iv, brain, 4 h): 567 ng/mL | highest mean concentration in tissue ([3]; brain): 344.27 ng/g | time of maximum tissue concentration ([3]; brain): 1 h | highest mean concentration in tissue ([3]; heart): 900.97 ng/g | highest mean concentration in tissue ([3]; intestine): 1099.14 ng/g | time of maximum tissue concentration ([3]; intestine): 1 h | highest mean concentration in tissue ([3]; kidney): 1450.43 ng/g | highest mean concentration in tissue ([3]; liver): 3199.49 ng/g | highest mean concentration in tissue ([3]; lung): 5685.40 ng/g | time of maximum tissue concentration ([3]; lung): 1 h | blood-brain barrier penetration [3]: could enter the brain through the blood-brain barrier | highest mean concentration in tissue ([3]; spleen): 2077.14 ng/g | time of maximum tissue concentration ([3]; spleen): 1 h | highest mean concentration in tissue ([3]; stomach): 1588.90 ng/g

From publication PMC6749364, “Pharmacokinetics and Tissue Distribution of Alnustone in Rats after Intravenous Administration by Liquid Chromatography-Mass Spectrometry” (Molecules, 2019)
